Assays:
Bax and Bcl-2 = Bax and Bcl-2 ELISA in hippocampus, Aβ25-35 oligomer neuroprotection design; assay type: in vivo, mice; settings: 0.3 mg/Kg; for Bax protein levels in the hippocampus: compared to the intoxicated, untreated group (not shown)
Description: (§1) The neuroprotective effect of the compounds, i.e. the ability thereof to protect cells from Aβ25-35 oligomer neurotoxicity and neurodegeneration, is also tested (FIG. 10). The test compounds are thus administered on the same day as the injection of the Aβ25-35 oligomers and are continued to be administered on a daily basis up to day 7 after the injection of the oligomers, at which time the mice are subjected to the YMT, PAT, MWT or ORT. The brain's anatomy is analysed and neuronal cells are counted by immunohistochemistry on mice sacrificed at D13. The biochemical analyses for the quantification of markers of oxidative stress and apoptosis were carried out at D16 on a group of mice that had been subjected to the WMT (FIG. 10).
Their brains were removed, and the hippocampi were isolated, weighed and frozen at −80° C. awaiting biochemical analysis.
Interleukin 6 (IL-6), a cytokine inflammatory marker, and the levels of the apoptosis markers Bcl2 and Bax proteins were measured in mouse hippocampi by the ELISA tests listed in Table 1 hereinbelow. Bcl2 is often referred to as an anti-apoptotic marker and Bax as a pro-apoptotic marker. Both hippocampi of 6-8 animals per condition were used. The tissues were homogenised after thawing in cell lysis buffer (1 mL, 3 IS007, Cloud-Clone) and sonicated on ice (2×10 s). After centrifugation (10,000 g, 5 min, 4° C.), the supernatants containing the markers to be measured were aliquoted and stored at −80° C. until the ELISA test was carried out according to the supplier's instructions. The results are expressed in ng of marker per mg of total protein and as a percentage of the control (mice not intoxicated with Aβ25-35 and not treated with the test compounds).

GFAP = assay: Immunohistochemical quantification of GFAP (astrogliosis); assay type: in vivo, mice; settings: 0.3 mg/Kg i.p.
Description: as §1
(§2) They were previously anaesthetised by i.p. injection of 200 μL of a solution of ketamine (80 mg/Kg) and xylazine (10 mg/Kg), then the tissues were fixed by intracardiac perfusion of 50 mL of a saline solution followed by 50 mL of Antigenfix® fixative (Diapath). The samples were kept for a further 48 hours in the fixative at 4° C., and then the mouse brains were stored in a 30% sucrose solution in PBS, before being sliced.
(§3) Slices were taken of each area of the brain, in particular the cortex, the nucleus basalis magnocellularis and the hippocampus (i.e. between bregma +1.8 and bregma −2.8 according to the stereotaxic coordinates of the mouse brain, Paxinos et al., 2004). Serial coronal sections with a thickness of 25 μm were cut with a freezing microtome (Microm HM 450, Thermo Fisher) and stored at −20° C. in a cryoprotective solution. […]
(§4) Immunohistochemical labelling is carried out in a conventional manner. […] After rinsing with PBS, the sections were mounted in a mounting fluid (ProLong, ThermoFischer) and images of each section were taken with a confocal fluorescence microscope (Leica SPE) for different sub-regions of the hippocampus such as the stratum radiatum (Rad), the stratum moleculare (Mol), the polymorphic layer of the dentate gyrus (PoDG) and for the cortex, the lateral parietal association area (LPtA). […]

Iba-1 = assay: Immunohistochemical quantification of Iba-1 (microgliosis); assay type: in vivo, mice; settings: 0.3 mg/Kg i.p.
Description: as §1, §2, §3, §4

[1] = tested on: Aβ25-35 oligomer-intoxicated mice; assay: Morris water maze test, neuroprotection design; assay type: in vivo; settings: 0.3 mg/Kg, probe test
Description: as §1
This test is used to assess long-term spatial reference memory. […] The animals' swimming behaviour was recorded (Videotrack® software, Viewpoint), and the trajectories, latencies and distances covered were measured. […] Median latency (time taken to find the platform) was calculated for each training day and expressed for the group as the mean latency±standard deviation. […] Each mouse was left in the water for 60 seconds and its swimming behaviour was recorded. The time spent in the north-eastern quadrant, which originally contained the platform (T), was measured and compared to the average time spent in the other quadrants (o).

[2] = all brain areas tested (Rad, Mol, PoDG, LPtA)

Row | SMILES | Bax/Bcl-2 ratio in the hippocampus (Bax and Bcl-2) | Bax protein levels in the hippocampus (Bax and Bcl-2) | GFAP labelling (astrocytic response) (GFAP; [2]) | Iba-1 labelling (microglial response) (Iba-1; [2]) | time spent in the training quadrant (learning and long-term spatial memory) [1] | GFAP labelling (astrogliosis) (GFAP; Mol) | GFAP labelling (astrocytic response) (GFAP; PoDG area) | Iba-1 labelling (microglial response) (Iba-1; PoDG area) | Iba-1 labelling (microgliosis) (Iba-1; cortex (LPtA))
1 | NC12CC3CC(C1)CC(CCF)(C3)C2 [FENM, 3-(2-fluoroethyl)adamantan-1-amine] | significantly decreased the Bax/BcI-2 ratio | significantly reduced | significantly decreases the astrocytic and microglial response in all of the brain areas tested | significantly decreases the astrocytic and microglial response in all of the brain areas tested | maintained their learning and memory abilities |  |  |  | 
2 | CC12CC3CC(C)(C1)CC(N)(C3)C2 [memantine, 3,5-Dimethyl-1-adamantanamine, reference compound] |  | significantly reduced |  |  | did not prevent the impairment of learning and memory functions | no effect on astrogliosis in the Mol | positive effect in the PoDG area | positive effect in the PoDG area | no effect
